The text below walks through data of US12552811B2, “Immunosuppressant, and preparation method therefor and use thereof” (Abbisko Therapeutics Co., Ltd., priority 2020, dated 2026).

Structures are written as SMILES.

In general, EC50 refers to the concentration that produces a half-maximal response.

The test can be described thus: Jurkat reporter gene cellular assay. In kind it is cell-based. The following applies: Homo sapiens; Jurkat/NF-κB-luc/PD1 + Raji-PD-L1 coculture, OKT3 1 μg/mL, 6 hrs, activation fold; read-out: Cell Activity EC50. How it is done:
The effect of compounds of the examples of the present invention and positive compounds on the interaction between PD-1 and PD-L1 expressed on cell surfaces, and the related influence on T cell functions, were determined by a Jurkat reporter gene cellular assay.
Briefly, the reporter gene plasmid of NF-κB-luc and the plasmid of human PD-1 were transfected into Jurkat cells to establish a stably transfected cell line capable of stably expressing both PD-1 and NF-κB-Luc reporter genes; the expression level of PD-1 on the cell surface was confirmed by flow cytometry; and the expression of the reporter gene was confirmed via the response of the reporter gene stimulated by OKT-3 and Raiji cells.
In addition, the plasmid of human PD-L1 was transfected into Raji cells to obtain a cell line capable of stably expressing PD-L1. Jurkat/NF-κB-luc/PD1 cells and Raji-PD-L1 cells were then cocultured and stimulated with OKT-3. On this basis, the compounds were added, and the enhancement of the signal pathway of T cell activation by the inhibitory effect of the compounds on the interaction between PD-1 and PD-L1 was evaluated by readings of reporter gene responses. The specific experimental process was as follows: • 1) 30 μL of compound or antibody solution was added to each well of a white 96-well plate (coming, 3610) at different diluted concentrations, and 10 μL of OKT3 (Biolegend, 317326) was then added (the final concentration of OKT3: 1 μg/mL); • 2) 20 μL of Raji-PD-L1 cell suspension was added to each well with 5*10^4 cells for each well, and was incubated in an incubator for 20 min: • 3) 20 μL of Jurkat/NF-κb-luc/PD-1 cell suspension was added to each well with 5*10^4 cells for each well, and well mixed, and 6 hrs later, Bright-glo (Promega, E2620) was applied and plates were read on Envision; • 4) The reading of each well treated with the compound was compared with the reading of each well treated with DMSO to obtain the activation fold of the compound; • 5) EC50 values of compounds and positive compounds of the examples of the present invention were determined by non-linear regression analysis of activation folds at different compound concentrations.

As for `Cn1c(C(=O)Nc2cccc(-c3cccc(NC(=O)c4cc5c(cn4)CN(C4CCC4)CC5)c3Cl)c2Cl)nc2c1CCN(CCC13CCC(C(=O)O)(CC1)C3)C2` [Example 5, 4-(2-(2-((2,2′-dichloro-3′-(7-cyclobutyl-5,6,7,8-tetrahydro-2,7-naphthyridine-3-carboxamido)-[1,1′-biphenyl]-3-yl)carbamoyl)-1-methyl-1,4,6,7-tetrahydro-5H-imidazo[4,5-c]pyridin-5-yl)ethyl)bicyclo [2.2.1]heptane-1-carboxylic acid], the half-maximal effective concentration (EC50) is 108 nM. Next, `C[C@@H](O)CN1CCc2cc(C(=O)Nc3cccc(-c4cccc(NC(=O)c5nc6c(n5C)CCN(CCC57CCC(C(=O)O)(CC5)C7)C6)c4Cl)c3Cl)ncc2C1` [Example 8, (R)-4-(2-(2-((2,2′-dichloro-3′-(7-(2-hydroxypropyl)-5,6,7,8-tetrahydro-2,7-naphthyridine-3-carboxamido)-[1,1′-biphenyl]-3-yl)carbamoyl)-1-methyl-1,4,6,7-tetrahydro-5H-imidazo[4,5-c]pyridin-5-yl)ethyl)bicyclo[2.2.1]heptane-1-carboxylic acid]: 59.8 nM; `Cn1c(C(=O)Nc2cccc(-c3cccc(NC(=O)c4cc5c(cn4)CN(CCCO)CC5)c3Cl)c2Cl)nc2c1CCN(CCC13CCC(C(=O)O)(CC1)C3)C2` [Example 9, 4-(2-(2-((2,2′-dichloro-3′-(7-(3-hydroxypropyl)-5,6,7,8-tetrahydro-2,7-naphthyridine-3-carboxamido)-[1,1′-biphenyl]-3-yl)carbamoyl)-1-methyl-1,4,6,7-tetrahydro-5H-imidazo[4,5-c]pyridin-5-yl)ethyl) bicyclo[2.2.1]heptane-1-carboxylic acid]: 177 nM.

On to `Cn1c(C(=O)Nc2cccc(-c3cccc(NC(=O)c4cc5c(cn4)CN([C@H]4CC[C@@H](O)CC4)CC5)c3Cl)c2Cl)nc2c1CCN(CCC13CCC(C(=O)O)(CC1)C3)C2` [Example 12, 4-(2-(2-((2,2′-dichloro-3′-(7-((1S,4S)-4-hydroxycyclohexyl)-5,6,7,8-tetrahydro-2,7-naphthyridine-3-carboxamido)-[1,1′-biphenyl]-3-yl)carbamoyl)-1-methyl-1,4,6,7-tetrahydro-5H-imidazo[4,5-c]pyridin-5-yl)ethyl)bicyclo[2.2.1]heptane-1-carboxylic acid], for which the EC50 is 114 nM. On to `Cn1c(C(=O)Nc2cccc(-c3cccc(NC(=O)c4cc5c(cn4)CN(CCC(C)(C)O)CC5)c3Cl)c2Cl)nc2c1CCN(CCC13CCC(C(=O)O)(CC1)C3)C2` [Example 13, 4-(2-(2-((2,2′-dichloro-3′-(7-(3-hydroxy-3-methylbutyl)-5,6,7,8-tetrahydro-2,7-naphthyridine-3-carboxamido)-[1,1′-biphenyl]-3-yl)carbamoyl)-1-methyl-1,4,6,7-tetrahydro-5H-imidazo[4,5-c]pyridin-5-yl)ethyl)bicyclo[2.2.1]heptane-1-carboxylic acid], for which the EC50 turned out to be 78.9 nM. Next, `CN(C)C(=O)CCCCN1CCc2cc(C(=O)Nc3cccc(-c4cccc(NC(=O)c5nc6c(n5C)CCN(CCC57CCC(C(=O)O)(CC5)C7)C6)c4Cl)c3Cl)ncc2C1` [Example 16, 4-(2-(2-((2,2′-dichloro-3′-(7-(5-(dimethylamino)-5-oxopentyl)-5,6,7,8-tetrahydro-2,7-naphthyridine-3-carboxamido)-[1,1′-biphenyl]-3-yl)carbamoyl)-1-methyl-1,4,6,7-tetrahydro-5H-imidazo[4,5-c]pyridin-5-yl)ethyl)bicyclo[2.2.1]heptane-1-carboxylic acid]: 83.5 nM. Next, `CC(C)N1CCc2cc(C(=O)Nc3cccc(-c4cccc(NC(=O)c5nc6c(n5C)CCN(CCC57CCC(C(=O)O)(CC5)C7)C6)c4Cl)c3Cl)ncc2C1C` (stereo not drawn) [Example 18, 4-(2-(2-((2,2′-dichloro-3′-(7-isopropyl-8-methyl-5,6,7,8-tetrahydro-2,7-naphthyridine-3-carboxamido)-[1,1′-biphenyl]-3-yl)carbamoyl)-1-methyl-1,4,6,7-tetrahydro-5H-imidazo[4,5-c]pyridin-5-yl)ethyl) bicyclo[2.2.1]heptane-1-carboxylic acid]: 90.7 nM.

For `CC(C)N1CCc2cc(C(=O)Nc3cccc(-c4cccc(NC(=O)c5nc6c(n5C)CCN(CC57CCC(C(=O)O)(CC5)C7)C6)c4Cl)c3Cl)ncc2C1` [Example 19, 4-((2-((2,2′-dichloro-3′-(7-isopropyl-5,6,7,8-tetrahydro-2,7-naphthyridine-3-carboxamido)-[1,1′-biphenyl]-3-yl)carbamoyl)-1-methyl-1,4,6,7-tetrahydro-5H-imidazo[4,5-c]pyridin-5-yl)methyl)bicyclo[2.2.1] heptane-1-carboxylic acid], the half-maximal effective concentration (EC50) turned out to be 58.8 nM. Next, `CC(C)N1CCc2cc(C(=O)Nc3cccc(-c4cccc(NC(=O)c5nc6c(n5C)CCN(CC[C@H]5CC[C@H](C(=O)O)CC5)C6)c4Cl)c3Cl)ncc2C1` [Example 23, (1R,4R)-4-(2-(2-((2,2′-dichloro-3′-(7-isopropyl-5,6,7,8-tetrahydro-2,7-naphthyridine-3-carboxamido)-[1,1′-biphenyl]-3-yl)carbamoyl)-1-methyl-1,4,6,7-tetrahydro-5H-imidazo[4,5-c]pyridin-5-yl)ethyl) cyclohexane-1-carboxylic acid]: 60.7 nM; `Cn1c(C(=O)Nc2cccc(-c3cccc(NC(=O)c4cc5c(cn4)CN([C@H]4CCC[C@@H]4O)CC5)c3Cl)c2Cl)nc2c1CCN(CCC13CCC(C(=O)O)(CC1)C3)C2` [Example 61, 4-(2-(2-((2,2′-dichloro-3′-(7-((1S,2S)-2-hydroxycyclopentyl)-5,6,7,8-tetrahydro-2,7-naphthyridine-3-carboxamido)-[1,1′-biphenyl]-3-yl)carbamoyl)-1-methyl-1,4,6,7-tetrahydro-5H-imidazo[4,5-c]pyridin-5-yl)ethyl)bicyclo[2.2.1]heptane-1-carboxylic acid]: 83.2 nM; `Cn1c(C(=O)Nc2cccc(-c3cccc(NC(=O)c4cc5c(cn4)CN(CC4(O)CC4)CC5)c3Cl)c2Cl)nc2c1CCN(CCC13CCC(C(=O)O)(CC1)C3)C2` [Example 62, 4-(2-(2-((2,2′-dichloro-3′-(7-((1-hydroxycyclopropyl)methyl)-5,6,7,8-tetrahydro-2,7-naphthyridine-3-carboxamido)-[1,1′-biphenyl]-3-yl)carbamoyl)-1-methyl-1,4,6,7-tetrahydro-5H-imidazo[4,5-c]pyridin-5-yl)ethyl)bicyclo[2.2.1]heptane-1-carboxylic acid]: 76.3 nM. Next, `Cn1c(C(=O)Nc2cccc(-c3cccc(NC(=O)c4cc5c(cn4)CN([C@H]4CC[C@H](O)CC4)CC5)c3Cl)c2Cl)nc2c1CCN(CCC13CCC(C(=O)O)(CC1)C3)C2` [Example 63, 4-(2-(2-((2,2′-dichloro-3′-(7-((1R,4R)-4-hydroxycyclohexyl)-5,6,7,8-tetrahydro-2,7-naphthyridine-3-carboxamido)-[1,1′-biphenyl]-3-yl)carbamoyl)-1-methyl-1,4,6,7-tetrahydro-5H-imidazo[4,5-c]pyridin-5-yl)ethyl)bicyclo[2.2.1]heptane-1-carboxylic acid]: 104 nM.
